Measurements published in PMC10439310 (Nature microbiology, 2022).

Experiments:
[1] = molecular target: T1, BsIMPDH (Bacillus subtilis, UniProt P21879); conditions: for binding to BsIMPDH (in words): ITC, 25 °C, 25 μM BsIMPDH
[2] = molecular target: T1, BsIMPDH; experiment: biochemical
[3] = test system: BsIMPDH-ΔCBS; conditions: 10 μM Ap4A
[4] = test system: BsIMPDH-ΔCBS; conditions: presence of IMP and NAD+
[5] = molecular target: T1, BsIMPDH; conditions: 50 μM BsIMPDH, 5 mM ligand, 25 °C
[6] = test system: E. coli IMPDH; conditions: cited from earlier work
[7] = test system: A. gossypii IMPDH; conditions: cited from earlier work
[8] = molecular target: T1, BsIMPDH; experiment: biochemical; remark: listed apart in the source
[9] = molecular target: T1, BsIMPDH; experiment: Mass photometry of BsIMPDH tetramer/octamer state; conditions: EC50 of BsIMPDH octamer formation, absence of substrates, 100 nM BsIMPDH
[10] = dinucleotide 10 μM, NAD+ constant, IMP variable

T1 sequence (P21879 whole entry): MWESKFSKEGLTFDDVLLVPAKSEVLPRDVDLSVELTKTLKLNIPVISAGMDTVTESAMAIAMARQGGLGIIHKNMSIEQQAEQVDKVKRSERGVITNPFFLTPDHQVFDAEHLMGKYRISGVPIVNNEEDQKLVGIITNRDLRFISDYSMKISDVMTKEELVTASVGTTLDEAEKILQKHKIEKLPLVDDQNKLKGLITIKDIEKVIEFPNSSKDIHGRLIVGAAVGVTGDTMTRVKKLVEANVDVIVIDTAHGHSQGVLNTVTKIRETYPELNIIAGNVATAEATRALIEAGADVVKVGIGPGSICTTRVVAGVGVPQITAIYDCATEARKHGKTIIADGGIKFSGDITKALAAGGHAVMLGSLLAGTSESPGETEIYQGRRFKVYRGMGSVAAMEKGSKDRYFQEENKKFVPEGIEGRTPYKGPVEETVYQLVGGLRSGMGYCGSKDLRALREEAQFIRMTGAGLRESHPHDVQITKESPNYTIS

For Nc1nc2c(ncn2[C@@H]2O[C@H](COP(=O)(O)OP(=O)(O)OP(=O)(O)OC[C@H]3O[C@@H](n4cnc5c(N)ncnc54)[C@H](O)[C@@H]3O)[C@@H](O)[C@H]2O)c(=O)[nH]1 [Ap3G], the “binding to BsIMPDH (in words)” value [1] was “No binding”.
In the case of Nc1ncnc2c1ncn2[C@@H]1O[C@H](COP(=O)(O)OP(=O)(O)OP(=O)(O)OP(=O)(O)OC[C@H]2O[C@@H](n3cnc4c(N)ncnc43)[C@H](O)[C@@H]2O)[C@@H](O)[C@H]1O [Ap4A, diadenosine 5’,5’’’-P1,P4-tetraphosphate], the Ki [2] is reported as 15.8 µM, the “effect on BsIMPDH activity (in words)” value ([2]; Ap4A 1-100 μM) is reported as “potently reduced BsIMPDH activity” and the “difference in affinity between Ap4A and ATP” value ([1]; from ITC Kd values) is reported as “approximately 700 fold”. For the same molecule, the “Ap4A-dependent regulation of enzymatic activity (in words)” value [3] was “insensitive to Ap4A-dependent regulation”, the “Ap4A-dependent tetramer-to-octamer equilibrium (in words)” value [4] was “insensitive to Ap4A-dependent regulation” and the “effect on conformational flexibility of CBS domains (HDX-MS, in words)” value [5] was “restrict the conformational flexibility of the CBS domains”. The “affinity relative to ATP” value [6] was “five-fold higher affinity than ATP”, the “binding (in words)” value [7] was “only with low affinity” and the Kd [8] was 7.4 ± 2.1 µM. The EC50 [9] was 90 µM.
With Nc1nc2c(ncn2[C@@H]2O[C@H](COP(=O)(O)OP(=O)(O)OP(=O)(O)OP(=O)(O)OC[C@H]3O[C@@H](n4cnc5c(N)ncnc54)[C@@H](O)C3O)[C@H](O)C2O)c(=O)[nH]1 (some centres unmarked) [Ap4G] the “binding to BsIMPDH (in words)” value [1] was “No binding”.
With Nc1ncnc2c1ncn2[C@@H]1O[C@H](COP(=O)(O)OP(=O)(O)OP(=O)(O)OP(=O)(O)OP(=O)(O)OC[C@H]2O[C@@H](n3cnc4c(N)ncnc43)[C@H](O)[C@@H]2O)[C@@H](O)[C@H]1O [Ap5A] the “effect on BsIMPDH activity (in words)” value [2, 10] was “resulted in BsIMPDH inhibition”.
In the case of Nc1nc2c(ncn2[C@@H]2O[C@H](COP(=O)(O)OP(=O)(O)OP(=O)(O)OP(=O)(O)OP(=O)(O)OC[C@H]3O[C@@H](n4cnc5c(N)ncnc54)[C@H](O)[C@@H]3O)[C@@H](O)[C@H]2O)c(=O)[nH]1 [Ap5G], the “binding to BsIMPDH (in words)” value [1] is listed as “No binding” and the “binding (in words)” value [7] is listed as “well”.
In the case of Nc1ncnc2c1ncn2[C@@H]1O[C@H](COP(=O)(O)OP(=O)(O)OP(=O)(O)OP(=O)(O)OP(=O)(O)OP(=O)(O)OC[C@H]2O[C@@H](n3cnc4c(N)ncnc43)[C@H](O)[C@@H]2O)[C@@H](O)[C@H]1O [Ap6A], the “effect on BsIMPDH activity (in words)” value [2, 10] is reported as “resulted in BsIMPDH inhibition”.
For Nc1nc2c(ncn2[C@@H]2O[C@H](COP(=O)(O)OP(=O)(O)O)[C@@H](O)[C@H]2O)c(=O)[nH]1 [GDP, guanosine-5’-mono-, di-, triphosphate], the “binding (in words)” value [7] is given as “well”.
